{"source": "patent US20190069549A1", "about": "“HERBICIDAL COMPOSITIONS CONTAINING PYRIDINE CARBOXYLIC ACIDS OR DERIVATIVES THEREOF, WITH GLYPHOSATE OR GLUFOSINATE, OR DERIVATIVES THEREOF” (Dow AgroSciences LLC, priority 2017, published 2019)", "assay_in_all_cases": "Postemergence herbicidal activity, greenhouse trial (visual injury)", "format_in_all_cases": "in vivo", "key": {"[1]": {"tested_on": "Abutilon theophrasti (velvetleaf), ABUTH", "details": "20-22 d", "experimental": "(§1) Seeds of the desired test plant species were planted in Sun Gro MetroMix® 360 planting mixture, which typically has a pH of 6.0 to 6.8 and an organic matter content of about 30 percent, in plastic pots with a surface area of 103.2 square centimeters (cm^2). When required to ensure good germination and healthy plants, a fungicide treatment and/or other chemical or physical treatment was applied. The plants were grown for 7-36 days (d) in a greenhouse with an approximate 14-hour (h) photoperiod which was maintained at about 23° C. during the day and 22° C. during the night. Nutrients and water were added on a regular basis and supplemental lighting was provided with overhead metal halide 1000-Watt lamps as necessary. The plants were employed for testing when they reached the second or third true leaf stage.\n(§2) Weighed amounts of technical material were dissolved in a volume of 97:3 volume per volume (v/v) acetone/dimethyl sulfoxide (DMSO) to make stock solutions. […] The concentrated stock solutions were diluted with an aqueous mixture of 1.5% v/v of Agri-dex crop oil concentrate to provide the appropriate application rates. Compound requirements are based upon a 12 milliliter (mL) application volume at a rate of 187 liters per hectare (L/ha). Spray solutions of the experimental compound mixtures were prepared by adding the stock solutions to the appropriate amount of dilution solution to form a 12 mL spray solution in two-way combinations. Formulated compounds were applied to the plant material with an overhead Mandel track sprayer equipped with 8002E nozzles calibrated to deliver 187 L/ha over an application area of 0.503 square meters (m^2) at a spray height of 18 inches (43 centimeters (cm)) above average plant canopy. Control plants were sprayed in the same manner with the solvent blank. Application rates for component (a) are in g ae/ha, and application rates for component (b) are in g ai/ha.\n(§3) The treated plants and control plants were placed in a greenhouse as described above and watered by sub-irrigation to prevent wash-off of the test compounds. After 20-22 d, the condition of the test plants as compared with that of the control plants was determined visually and scored on a scale of 0 to 100 percent where 0 corresponds to no injury and 100 corresponds to complete kill. The condition of the test plants was compared with that of the control plants as determined visually and scored on a scale of 0 to 100 percent, where 0 corresponds to no injury and 100 corresponds to complete kill. Colby' s equation was used to determine the herbicidal effects expected from the mixtures.\n(§4) Compound 1 was formulated as an EC and was combined with glyphosate or glufosinate and applied to weeds, and the phytotoxicity of the herbicidal composition was measured."}, "[2]": {"tested_on": "Brassica alboglabra (chinese kale), BRSAG", "details": "5 g ae/ha alone, 20-22 d, Table 2", "experimental": "as §1, §2, §3, §4"}, "[3]": {"tested_on": "Brassica juncea (brown mustard), BRSJU", "details": "5 g ae/ha alone, 20-22 d, Table 2", "experimental": "as §1, §2, §3, §4"}, "[4]": {"tested_on": "Brassica napus (spring rape; Roundup Ready), BRSNN-RR", "details": "5 g ae/ha alone, 20-22 d, Table 2", "experimental": "as §1, §2, §3, §4"}, "[5]": {"tested_on": "Brassica napus (winter rape), BRSNW", "details": "20-22 d", "experimental": "as §1, §2, §3, §4"}, "[6]": {"tested_on": "Brassica rapa (turnip), BRSRR", "details": "20-22 d", "experimental": "as §1, §2, §3, §4"}, "[7]": {"tested_on": "Cirsium arvense (thistle), CIRAR", "details": "20-22 d", "experimental": "as §1, §2, §3, §4"}, "[8]": {"tested_on": "Digitaria sanguinalis (large crabgrass), DIGSA", "details": "20-22 d", "experimental": "as §1, §2, §3, §4"}, "[9]": {"tested_on": "Helianthus annuus (sunflower), HELAN", "details": "20-22 d", "experimental": "as §1, §2, §3, §4"}, "[10]": {"tested_on": "Polygonum convolvulus (wild buckwheat), POLCO", "details": "20-22 d", "experimental": "as §1, §2, §3, §4"}, "[11]": {"tested_on": "Triticum aestivum (winter wheat), TRZAW", "details": "20-22 d", "experimental": "as §1, §2, §3, §4"}, "[12]": {"tested_on": "Viola tricolor (wild pansy), VIOTR", "details": "20-22 d", "experimental": "as §1, §2, §3, §4"}, "[13]": {"tested_on": "Zea mays (maize/corn), ZEAMX", "details": "20-22 d", "experimental": "as §1, §2, §3, §4"}}}
{"smiles": "Nc1c(F)c(-c2ccc3cc[nH]c3c2F)nc(C(=O)O)c1Cl", "note": "[Compound 1]", "values": [{"measurement": "% Visual Injury", "setting": "[1]; 5 g ae/ha alone, Table 1", "result": 60, "unit": "%"}, {"measurement": "% Visual Injury", "setting": "[1]; 5 g ae/ha alone, Table 2", "result": 60, "unit": "%"}, {"measurement": "% Visual Injury", "setting": "[2]", "result": 15, "unit": "%"}, {"measurement": "% Visual Injury", "setting": "[3]", "result": 60, "unit": "%"}, {"measurement": "% Visual Injury", "setting": "[4]", "result": 35, "unit": "%"}, {"measurement": "% Visual Injury", "setting": "[5]; BRSNW* (retest), 5 g ae/ha alone, Table 1", "result": 50, "unit": "%"}, {"measurement": "% Visual Injury", "setting": "[5]; BRSNW* (retest), 5 g ae/ha alone, Table 2", "result": 30, "unit": "%"}, {"measurement": "% Visual Injury", "setting": "[5]; BRSNW, 5 g ae/ha alone, Table 1", "result": 30, "unit": "%"}, {"measurement": "% Visual Injury", "setting": "[5]; BRSNW, 5 g ae/ha alone, Table 2", "result": 50, "unit": "%"}, {"measurement": "% Visual Injury", "setting": "[6]; 5 g ae/ha alone, Table 1", "result": 50, "unit": "%"}, {"measurement": "% Visual Injury", "setting": "[6]; 5 g ae/ha alone, Table 2", "result": 50, "unit": "%"}, {"measurement": "% Visual Injury", "setting": "[7]; 5 g ae/ha alone, Table 1", "result": 10, "unit": "%"}, {"measurement": "% Visual Injury", "setting": "[7]; 5 g ae/ha alone, Table 2", "result": 10, "unit": "%"}, {"measurement": "% Visual Injury", "setting": "[8]; 5 g ae/ha alone, Table 1", "result": 5, "unit": "%"}, {"measurement": "% Visual Injury", "setting": "[8]; 5 g ae/ha alone, Table 2", "result": 5, "unit": "%"}, {"measurement": "% Visual Injury", "setting": "[9]; 5 g ae/ha alone, Table 1", "result": 70, "unit": "%"}, {"measurement": "% Visual Injury", "setting": "[9]; 5 g ae/ha alone, Table 2", "result": 70, "unit": "%"}, {"measurement": "% Visual Injury", "setting": "[10]; 5 g ae/ha alone, Table 1", "result": 65, "unit": "%"}, {"measurement": "% Visual Injury", "setting": "[10]; 5 g ae/ha alone, Table 2", "result": 65, "unit": "%"}, {"measurement": "% Visual Injury", "setting": "[11]; 5 g ae/ha alone, Table 1", "result": 5, "unit": "%"}, {"measurement": "% Visual Injury", "setting": "[11]; 5 g ae/ha alone, Table 2", "result": 5, "unit": "%"}, {"measurement": "% Visual Injury", "setting": "[12]; 5 g ae/ha alone, Table 1", "result": 5, "unit": "%"}, {"measurement": "% Visual Injury", "setting": "[12]; 5 g ae/ha alone, Table 2", "result": 5, "unit": "%"}, {"measurement": "% Visual Injury", "setting": "[13]; 5 g ae/ha alone, Table 1", "result": 0, "unit": "%"}, {"measurement": "% Visual Injury", "setting": "[13]; 5 g ae/ha alone, Table 2", "result": 0, "unit": "%"}]}
{"smiles": "O=C(O)CNCP(=O)(O)O", "note": "[Glyphosate, N-(phosphonomethyl)glycine]", "values": [{"measurement": "% Visual Injury", "setting": "[1]; 210 g ai/ha alone, Table 1", "result": 60, "unit": "%"}, {"measurement": "% Visual Injury", "setting": "[5]; BRSNW* (retest), 210 g ai/ha alone, Table 1", "result": 30, "unit": "%"}, {"measurement": "% Visual Injury", "setting": "[5]; BRSNW, 210 g ai/ha alone, Table 1", "result": 20, "unit": "%"}, {"measurement": "% Visual Injury", "setting": "[6]; 210 g ai/ha alone, Table 1", "result": 65, "unit": "%"}, {"measurement": "% Visual Injury", "setting": "[7]; 210 g ai/ha alone, Table 1", "result": 25, "unit": "%"}, {"measurement": "% Visual Injury", "setting": "[8]; 210 g ai/ha alone, Table 1", "result": 70, "unit": "%"}, {"measurement": "% Visual Injury", "setting": "[9]; 210 g ai/ha alone, Table 1", "result": 65, "unit": "%"}, {"measurement": "% Visual Injury", "setting": "[10]; 210 g ai/ha alone, Table 1", "result": 45, "unit": "%"}, {"measurement": "% Visual Injury", "setting": "[11]; 210 g ai/ha alone, Table 1", "result": 75, "unit": "%"}, {"measurement": "% Visual Injury", "setting": "[12]; 210 g ai/ha alone, Table 1", "result": 50, "unit": "%"}, {"measurement": "% Visual Injury", "setting": "[13]; 210 g ai/ha alone, Table 1", "result": 0, "unit": "%"}]}
